Laboratory results from patent US20260274814A1, “THIENYL COMPOUNDS FOR THE TREATMENT OF A CENTRAL NERVOUS SYSTEM DISEASE OR DISORDER” (Coreterra Therapeutics, Inc., priority 2023, published 2026).
Where a name gives a salt, the structure may show the parent alone. Read-outs that look alike come from different tables or passages of the source.

System: mice
Assay: Neuropharmacological Assay (SmartCube): automated behavioral signature of compound-treated mice compared with a database of reference drug classes
Assay type: in vivo
Conditions: for minimal effective dose: Mus musculus, ip
Text: Neurosci. 2011 Sep. 9; 5: 103 (doi: 10.3389/fnins.2011.00103) (“Roberds”). As reported in Roberds, because psychiatric diseases generally result from disorders of cell-cell communication or circuitry, intact systems are useful in detecting improvement in disease-relevant endpoints. These endpoints are typically behavioral in nature, often requiring human observation and interpretation. To facilitate testing of multiple compounds for behavioral effects relevant to psychiatric disease, PsychoGenics, Inc. (Tarrytown, NY, “PGI”) developed SmartCube™ an automated system in which behaviors of compound-treated mice are captured by digital video and analyzed with computer algorithms. (D. Brunner et al. Drug Discov. Today 2002, 7:S107-S112). PGI Analytical Systems uses data from SmartCube™ to compare the behavioral signature of a test compound to a database of behavioral signatures obtained using a large set of diverse reference compounds. (The composition of the database as well as validation of the method is further described in Roberds). In this way, the neuropharmacological effects of a test compound can be predicted by similarity to major classes of compounds, such as antipsychotics, anxiolytics and antidepressants.
The SmartCube™ system produces an activity signature indicating the probability that the activity of the test compound at the administered dose matches a given class of neuropharmacological agents. (See, e.g., Roberds, FIGS. 2 and 3). The test compound is simultaneously compared against multiple classes of agents; thus, a separate probability is generated for each behavioral effect measured (e.g., anxiolytic activity, analgesic activity, etc.). In table 2 below, these probabilities are reported for each behavioral effect measured as described in Table 1 below.
Provided compounds were dissolved in a mixture of Pharmasolve™ (N-methyl-2-pyrrolidone), polyethylene glycol and propylene glycol, and were injected i.p. 15 min. before the behavioral test. For each compound, injections were administered at 3 different doses. For each behavioral effect measured, results for the 3.0 mg/kg dose are presented. The potency of many of the compounds in the table was also determined in the SmartCube™ system. Test compounds were routinely examined at dose levels of 0.3, 1, 3 and 10 mg per kg (mpk), although the dose range was increased or decreased, if necessary, to obtain a full dose response curve. A compound's minimal effective dose (MED) is a measure of the compound's potency. The MED was defined as the dose (in mpk) having 45% or more total activity in SmartCube. If only one dose was tested, that dose is shown in the MED column of Table 2 even though the dose is not known to be the MED.

[1] = SmartCube probability class, 3.0 mg/kg dose, i.p. 15 min before the behavioral test
[2] = SmartCube probability class, 3.0 mg/kg dose, i.p. 15 min before the behavioral test, hydrochloride, 3 mg/kg
[3] = dose having 45% or more total activity in SmartCube, i.p., if only one dose was tested, that dose is shown
[4] = probability that activity matches this class of agents, 3.0 mg/kg i.p., 15 min before test
[5] = probability that activity matches this class of agents, 3.0 mg/kg i.p., 15 min before test, hydrochloride, 3 mg/kg
[6] = minimal effective dose: dose having 45% or more total activity in SmartCube, i.p., if only one dose tested, that dose is shown, read-out: MED
[7] = SmartCube class probability, 3.0 mg/kg i.p., 15 min before test
[8] = SmartCube class probability, 3.0 mg/kg i.p., 15 min before test, hydrochloride, 3 mg/kg
[9] = dose having 45% or more total activity in SmartCube, i.p., if only one dose was tested, that dose is shown, hydrochloride
[10] = minimal effective dose: dose having 45% or more total activity in SmartCube, i.p., if only one dose was tested, that dose is shown, read-out: MED

For CCC1(NC)CCc2sccc2C1 (single isomer, unassigned) [Compound 292, 5-ethyl-N-methyl-6,7-dihydro-4H-benzothiophen-5-amine hydrochloride], the AD [1] was “ND (^ <4%)”, the AG [1] was “ND (^ <4%)” and the AN [1] was “ND (^ <4%)”. For the same compound, the AP [1] was “ND (^ <4%)”, the AX [1] was “ND (^ <4%)” and the CE [1] was “ND (^ <4%)”. For the same compound, the HL [1] was “ND (^ <4%)”, the MS [1] was “ND (^ <4%)” and the PS [1] was “ND (^ <4%)”. For the same compound, the SH [1] was “ND (^ <4%)”, the UK [2] was “++ (≥24%)” and the MED (minimal effective dose: dose having 45% or more total activity in SmartCube, i.p., if only one dose was tested, that dose is shown) was greater than 3 mpk.
For CNC1CCc2scc(F)c2C1 (single isomer, unassigned) [Compound 138, 3-fluoro-N-methyl-4,5,6,7-tetrahydrobenzothiophen-5-amine hydrochloride], the “MED (minimal effective dose)” value [3] was 1 mpk, the AD [4] was “ND (^ <4%)” and the AG [4] was “ND (^ <4%)”. For the same compound, the AN [4] was “ND (^ <4%)”, the CE [4] was “ND (^ <4%)” and the HL [4] was “ND (^ <4%)”. The MS [4] was “ND (^ <4%)”, the PS [4] was “ND (^ <4%)” and the SH [4] was “ND (^ <4%)”. For the same compound, the UK [4] was “ND (^ <4%)”, the AP [5] was “+++ (≥49%)” and the AX [5] was “++ (≥24%)”.
For CNC1CCc2c(sc(Cl)c2C)C1 (single isomer, unassigned) [Compound 147, 2-chloro-N, 3-dimethyl-4,5,6,7-tetrahydrobenzothiophen-6-amine hydrochloride], the minimal effective dose [6] was 3 mg/kg, the AG [7] was “ND (^ <4%)” and the CE [7] was “ND (^ <4%)”. The MS [7] was “ND (^ <4%)”, the PS [7] was “ND (^ <4%)” and the SH [7] was “ND (^ <4%)”. For the same compound, the AD [8] was “ND (^ <4%)”, the AN [8] was “+ (≥4%)” and the AP [8] was “ND (^ <4%)”. For the same compound, the AX [8] was “ND (^ <4%)”, the HL [8] was “+ (≥4%)” and the UK [8] was “+++ (≥49%)”.
For CNC1CCc2csc(C#N)c2C1 (single isomer, unassigned) [Compound 133, 6-(methylamino)-4,5,6,7-tetrahydro-2-benzothiophene-1-carbonitrile hydrochloride], the “MED (minimal effective dose)” value [9] was less than 1 mpk, the AG [4] was “ND (^ <4%)” and the AN [4] was “ND (^ <4%)”. For the same compound, the AX [4] was “ND (^ <4%)”, the CE [4] was “ND (^ <4%)” and the HL [4] was “ND (^ <4%)”. The MS [4] was “ND (^ <4%)”, the PS [4] was “ND (^ <4%)” and the SH [4] was “ND (^ <4%)”. The AD [5] was “+++ (≥49%)”, the AP [5] was “+ (≥4%)” and the UK [5] was “ND (^ <4%)”.
For NC1COc2c(C3CC3)csc2C1 (single isomer, unassigned) [Compound 329, 3-cyclopropyl-6,7-dihydro-5H-thieno[3,2-b]pyran-6-amine hydrochloride], the minimal effective dose [10] was less than 3 mg/kg, the AG [1] was “ND (^ <4%)” and the AN [1] was “ND (^ <4%)”. For the same compound, the AP [1] was “ND (^ <4%)”, the AX [1] was “ND (^ <4%)” and the CE [1] was “ND (^ <4%)”. For the same compound, the HL [1] was “ND (^ <4%)”, the MS [1] was “ND (^ <4%)” and the PS [1] was “ND (^ <4%)”. For the same compound, the SH [1] was “ND (^ <4%)”, the AD [2] was “++++ (≥74%)” and the UK [2] was “ND (^ <4%)”.
For CNC1CCc2scc(CN)c2C1 (single isomer, unassigned) [Compound 236, 3-(aminomethyl)-N-methyl-4,5,6,7-tetrahydrobenzothiophen-5-amine dihydrochloride], the minimal effective dose [6] was greater than 3 mg/kg, the AD [7] was “ND (^ <4%)” and the AG [7] was “ND (^ <4%)”. The AN [7] was “ND (^ <4%)”, the AP [7] was “ND (^ <4%)” and the AX [7] was “ND (^ <4%)”. The CE [7] was “ND (^ <4%)”, the HL [7] was “ND (^ <4%)” and the MS [7] was “ND (^ <4%)”. For the same compound, the PS [7] was “ND (^ <4%)”, the SH [7] was “ND (^ <4%)” and the UK (SmartCube class probability, 3.0 mg/kg i.p., 15 min before test, dihydrochloride, 3 mg/kg) was “ND (^ <4%)”.
With CNC1CCCc2sccc2C1 (stereo not drawn) [Compound 326, N-methyl-5,6,7,8-tetrahydro-4H-cyclohepta[b]thiophen-5-amine hydrochloride] the minimal effective dose [10] was 3 mg/kg, the AD [1] was “ND (^ <4%)” and the AG [1] was “ND (^ <4%)”. For the same compound, the AN [1] was “ND (^ <4%)”, the AP [1] was “ND (^ <4%)” and the AX [1] was “++ (≥24%)”. For the same compound, the CE [1] was “ND (^ <4%)”, the HL [1] was “ND (^ <4%)” and the MS [1] was “ND (^ <4%)”. The PS [1] was “ND (^ <4%)”, the SH [1] was “ND (^ <4%)” and the UK [1] was “++ (≥24%)”.
In the case of CNC1CCc2c(csc2Cl)C1 (single isomer, unassigned) [Compound 58, 1-chloro-N-methyl-4,5,6,7-tetrahydro-2-benzothiophen-5-amine hydrochloride], the “MED (minimal effective dose)” value [3] is reported as 1.0 mpk, the AG [4] is reported as “ND (^ <4%)” and the AN [4] is reported as “ND (^ <4%)”. The AX [4] was “ND (^ <4%)”, the CE [4] was “ND (^ <4%)” and the HL [4] was “ND (^ <4%)”. The PS [4] was “ND (^ <4%)”, the SH [4] was “ND (^ <4%)” and the AD [5] was “+ (≥4%)”. The AP [5] was “+++ (≥49%)”, the MS [5] was “+ (≥4%)” and the UK [5] was “ND (^ <4%)”.
In the case of N#Cc1csc2c1CC(N)CC2 (single isomer, unassigned) [Compound 176, 5-amino-4,5,6,7-tetrahydrobenzo[b]thiophene-3-carbonitrile hydrochloride], the minimal effective dose [6] is reported as greater than 3 mg/kg, the AD [7] is reported as “ND (^ <4%)” and the AG [7] is reported as “ND (^ <4%)”. The AN [7] was “ND (^ <4%)”, the AP [7] was “ND (^ <4%)” and the AX [7] was “ND (^ <4%)”. The CE [7] was “ND (^ <4%)”, the HL [7] was “ND (^ <4%)” and the MS [7] was “ND (^ <4%)”. The PS [7] was “ND (^ <4%)”, the SH [7] was “ND (^ <4%)” and the UK [8] was “ND (^ <4%)”.
In the case of Cc1csc2c1CCC(N)C2 (single isomer, unassigned) [Compound 65, 3-methyl-4,5,6,7-tetrahydrobenzothiophen-6-amine hydrochloride], the “MED (minimal effective dose)” value [9] is reported as 3 mpk, the AG [4] is reported as “ND (^ <4%)” and the AN [4] is reported as “ND (^ <4%)”. The AX [4] was “ND (^ <4%)”, the CE [4] was “ND (^ <4%)” and the MS [4] was “ND (^ <4%)”. For the same compound, the SH [4] was “ND (^ <4%)”, the UK [4] was “ND (^ <4%)” and the AD [5] was “+++ (≥49%)”. For the same compound, the AP [5] was “ND (^ <4%)”, the HL [5] was “+ (≥4%)” and the PS [5] was “+ (≥4%)”.
For CNC1CCc2c(C)sc(C)c2C1 (single isomer, unassigned) [Compound 31, N, 1,3-trimethyl-4,5,6,7-tetrahydro-2-benzothiophen-5-amine hydrochloride], the “MED (minimal effective dose)” value [9] was 3.0 mpk, the AD [4] was “ND (^ <4%)” and the AG [4] was “ND (^ <4%)”. For the same compound, the AN [4] was “ND (^ <4%)”, the CE [4] was “ND (^ <4%)” and the HL [4] was “ND (^ <4%)”. The MS [4] was “ND (^ <4%)”, the PS [4] was “ND (^ <4%)” and the UK [4] was “ND (^ <4%)”. The AP [5] was “+++ (≥49%)”, the AX [5] was “++ (≥24%)” and the SH [5] was “ND (^ <4%)”.
CNC1CCc2cscc2C1.Cl (single isomer, unassigned) [Compound 13, N-methyl-4,5,6,7-tetrahydro-2-benzothiophen-5-amine hydrochloride] was tested, and the minimal effective dose (dose having 45% or more total activity in SmartCube, i.p., if only one dose was tested, that dose is shown, read-out: MED (minimal effective dose)) was 0.3 mg/kg, the AG [4] was “ND (^ <4%)” and the AN [4] was “ND (^ <4%)”. The AX [4] was “+ (≥4%)”, the HL [4] was “ND (^ <4%)” and the MS [4] was “ND (^ <4%)”. The PS [4] was “ND (^ <4%)”, the SH [4] was “ND (^ <4%)” and the UK [4] was “ND (^ <4%)”. For the same compound, the AD [5] was “ND (^ <4%)”, the AP [5] was “+++ (≥49%)” and the CE [5] was “+ (≥4%)”.
